#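 Tested at 5 concentrations; 48 h exposure; 96-well plates; endpoints linearly interpolated, else capped at highest concentration. Here, GI50 denotes the concentration required for 50% inhibition of growth. TGI marks complete inhibition of growth.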
# Columns and labels:
# Assay in all cases: NCI tumour cell line growth inhibition, 48 h
# NCI-H226 lung = tested on: NCI-H226 lung
# MCF7 breast = tested on: MCF7 breast
# RXF 393 renal = tested on: RXF 393 renal
# A549 NSCLC = tested on: A549 NSCLC
# HOP-92 NSCLC = tested on: HOP-92 NSCLC
# KM12 colon = tested on: KM12 colon
# K-562 leukemia = tested on: K-562 leukemia
# OVCAR-3 ovarian = tested on: OVCAR-3 ovarian
# U251 CNS = tested on: U251 CNS
# SF-268 CNS = tested on: SF-268 CNS
# TK-10 renal = tested on: TK-10 renal
# HT29 colon = tested on: HT29 colon
# SK-MEL-28 melanoma = tested on: SK-MEL-28 melanoma
# MOLT-4 leukemia = tested on: MOLT-4 leukemia
# SNB-19 CNS = tested on: SNB-19 CNS
# PC-3 prostate = tested on: PC-3 prostate
# SK-OV-3 ovarian = tested on: SK-OV-3 ovarian
# NCI-H23 lung = tested on: NCI-H23 lung
# CAKI-1 renal = tested on: CAKI-1 renal
# MDA-MB-468 breast = tested on: MDA-MB-468 breast
# HCT-15 colon = tested on: HCT-15 colon
# HCC-2998 colon = tested on: HCC-2998 colon
# HCT-116 colon = tested on: HCT-116 colon
# LOX IMVI melanoma = tested on: LOX IMVI melanoma
# HOP-62 NSCLC = tested on: HOP-62 NSCLC
# UACC-257 melanoma = tested on: UACC-257 melanoma
# NCI-H522 lung = tested on: NCI-H522 lung
# 786-0 renal = tested on: 786-0 renal
# SF-539 CNS = tested on: SF-539 CNS
# SF-295 CNS = tested on: SF-295 CNS
# RPMI-8226 leukemia = tested on: RPMI-8226 leukemia
# MALME-3M melanoma = tested on: MALME-3M melanoma
# IGROV1 ovarian = tested on: IGROV1 ovarian
# COLO 205 colon = tested on: COLO 205 colon
# SW-620 colon = tested on: SW-620 colon
# T-47D breast = tested on: T-47D breast
# CCRF-CEM leukemia = tested on: CCRF-CEM leukemia
# NCI/ADR-RES ovarian = tested on: NCI/ADR-RES ovarian
# OVCAR-5 ovarian = tested on: OVCAR-5 ovarian
# UACC-62 melanoma = tested on: UACC-62 melanoma
# SN12C renal = tested on: SN12C renal
# NCI-H460 lung = tested on: NCI-H460 lung
# BT-549 breast = tested on: BT-549 breast
# OVCAR-4 ovarian = tested on: OVCAR-4 ovarian
# SK-MEL-5 melanoma = tested on: SK-MEL-5 melanoma
# HL-60(TB) leukemia = tested on: HL-60(TB) leukemia
# A498 renal = tested on: A498 renal
# DU-145 prostate = tested on: DU-145 prostate
# SR leukemia = tested on: SR leukemia
# MDA-MB-435 = tested on: MDA-MB-435
# OVCAR-8 ovarian = tested on: OVCAR-8 ovarian
# M14 melanoma = tested on: M14 melanoma
# HS 578T breast = tested on: HS 578T breast
# EKVX NSCLC = tested on: EKVX NSCLC
# ACHN renal = tested on: ACHN renal
smiles,measurement,setting,value
O=C(Nc1ccc(F)cc1)Nc1nc2ccc([N+](=O)[O-])cc2s1,GI50,NCI-H226 lung,3.34 µM
same,TGI,NCI-H226 lung,11.7 µM
same,GI50,MCF7 breast,2.51 µM
same,TGI,MCF7 breast,8.65 µM
same,GI50,RXF 393 renal,2.65 µM
same,TGI,RXF 393 renal,8.72 µM
same,GI50,A549 NSCLC,2.75 µM
same,TGI,A549 NSCLC,11.6 µM
same,GI50,HOP-92 NSCLC,2.59 µM
same,TGI,HOP-92 NSCLC,7.13 µM
same,GI50,KM12 colon,3.05 µM
same,TGI,KM12 colon,10.5 µM
same,GI50,K-562 leukemia,3.03 µM
same,TGI,K-562 leukemia,10.4 µM
same,GI50,OVCAR-3 ovarian,3.45 µM
same,TGI,OVCAR-3 ovarian,12.1 µM
same,GI50,U251 CNS,3.3 µM
same,TGI,U251 CNS,11.3 µM
same,GI50,SF-268 CNS,2.78 µM
same,TGI,SF-268 CNS,11.3 µM
same,GI50,TK-10 renal,3.29 µM
same,TGI,TK-10 renal,12 µM
same,GI50,HT29 colon,3.42 µM
same,TGI,HT29 colon,11 µM
same,GI50,SK-MEL-28 melanoma,3 µM
same,TGI,SK-MEL-28 melanoma,11 µM
same,GI50,MOLT-4 leukemia,2.41 µM
same,TGI,MOLT-4 leukemia,6.77 µM
same,GI50,SNB-19 CNS,3.21 µM
same,TGI,SNB-19 CNS,12.2 µM
same,GI50,PC-3 prostate,3.48 µM
same,TGI,PC-3 prostate,12.3 µM
same,GI50,SK-OV-3 ovarian,2.14 µM
same,TGI,SK-OV-3 ovarian,6.98 µM
same,GI50,NCI-H23 lung,2.45 µM
same,TGI,NCI-H23 lung,6.21 µM
same,GI50,CAKI-1 renal,2.96 µM
same,TGI,CAKI-1 renal,10.7 µM
same,GI50,MDA-MB-468 breast,2.36 µM
same,TGI,MDA-MB-468 breast,6.75 µM
same,GI50,HCT-15 colon,2.73 µM
same,TGI,HCT-15 colon,10.2 µM
same,GI50,HCC-2998 colon,3.56 µM
same,TGI,HCC-2998 colon,12.5 µM
same,GI50,HCT-116 colon,2.92 µM
same,TGI,HCT-116 colon,10.4 µM
same,GI50,LOX IMVI melanoma,3.58 µM
same,TGI,LOX IMVI melanoma,12.8 µM
same,GI50,HOP-62 NSCLC,3.19 µM
same,TGI,HOP-62 NSCLC,11.8 µM
same,GI50,UACC-257 melanoma,2.27 µM
same,TGI,UACC-257 melanoma,6.48 µM
same,GI50,NCI-H522 lung,2.37 µM
same,TGI,NCI-H522 lung,7.56 µM
same,GI50,786-0 renal,3.07 µM
same,TGI,786-0 renal,11.5 µM
same,GI50,SF-539 CNS,2.59 µM
same,TGI,SF-539 CNS,6.91 µM
same,GI50,SF-295 CNS,2.04 µM
same,TGI,SF-295 CNS,5.27 µM
same,GI50,RPMI-8226 leukemia,1.92 µM
same,TGI,RPMI-8226 leukemia,5.04 µM
same,GI50,MALME-3M melanoma,1.96 µM
same,TGI,MALME-3M melanoma,5.38 µM
same,GI50,IGROV1 ovarian,3.93 µM
same,TGI,IGROV1 ovarian,14.5 µM
same,GI50,COLO 205 colon,2.1 µM
same,TGI,COLO 205 colon,3.97 µM
same,GI50,SW-620 colon,3.41 µM
same,TGI,SW-620 colon,12.7 µM
same,GI50,T-47D breast,2.58 µM
same,TGI,T-47D breast,7.68 µM
same,GI50,CCRF-CEM leukemia,2.61 µM
same,TGI,CCRF-CEM leukemia,10.5 µM
same,GI50,NCI/ADR-RES ovarian,2.85 µM
same,TGI,NCI/ADR-RES ovarian,9.36 µM
same,GI50,OVCAR-5 ovarian,3.45 µM
same,TGI,OVCAR-5 ovarian,12.9 µM
same,GI50,UACC-62 melanoma,2.62 µM
same,TGI,UACC-62 melanoma,9.22 µM
same,GI50,SN12C renal,2.59 µM
same,TGI,SN12C renal,8.12 µM
same,GI50,NCI-H460 lung,2.89 µM
same,TGI,NCI-H460 lung,9.77 µM
same,GI50,BT-549 breast,1.95 µM
same,TGI,BT-549 breast,5.03 µM
same,GI50,OVCAR-4 ovarian,3.3 µM
same,TGI,OVCAR-4 ovarian,13.2 µM
same,GI50,SK-MEL-5 melanoma,1.73 µM
same,TGI,SK-MEL-5 melanoma,3.3 µM
same,GI50,HL-60(TB) leukemia,1.97 µM
same,TGI,HL-60(TB) leukemia,4.67 µM
same,GI50,A498 renal,2.26 µM
same,TGI,A498 renal,6.46 µM
same,GI50,DU-145 prostate,3.94 µM
same,TGI,DU-145 prostate,14 µM
same,GI50,SR leukemia,1.86 µM
same,TGI,SR leukemia,5.02 µM
same,GI50,MDA-MB-435,3.18 µM
same,TGI,MDA-MB-435,11.3 µM
same,GI50,OVCAR-8 ovarian,3.42 µM
same,TGI,OVCAR-8 ovarian,11.9 µM
same,GI50,M14 melanoma,2.7 µM
same,TGI,M14 melanoma,10.7 µM
same,GI50,HS 578T breast,2.6 µM
same,TGI,HS 578T breast,8.28 µM
same,GI50,EKVX NSCLC,2.9 µM
same,TGI,EKVX NSCLC,10.3 µM
same,GI50,ACHN renal,3.09 µM
same,TGI,ACHN renal,9.82 µM
